Measured values: patent publication US20210300873A1 (Clear Creek Bio, Inc., priority 2020, published 2021)
Counter-ions that a name gives are not always drawn. Like-named read-outs stand apart in the source and are kept apart here.

Assay type: physicochemical
Details: sodium salt; for Stability of the polymorphic form (in words): storage, ambient condition (temperature and humidity) or closed cap

Structure (SMILES) | Time after which the form converts to Pattern C (ambient condition) | Time after which the form converts to Pattern C (closed cap storage) | Stability of the polymorphic form (in words) | further results
Cc1c(-c2ccc(-c3ccccc3F)cc2)nc2ccc(F)cc2c1C(=O)O [Pattern G, brequinar sodium salt] | to Pattern C after 2 weeks at ambient | – | – | –
Cc1c(-c2ccc(-c3ccccc3F)cc2)nc2ccc(F)cc2c1C(=O)O [Pattern J, brequinar sodium salt] | – | 2 weeks | – | –
Cc1c(-c2ccc(-c3ccccc3F)cc2)nc2ccc(F)cc2c1C(=O)O [Pattern D, brequinar sodium salt] | to Pattern C after 3 days at ambient | – | unstable | –
Cc1c(-c2ccc(-c3ccccc3F)cc2)nc2ccc(F)cc2c1C(=O)O [Pattern A, brequinar sodium salt] | – | – | metastable | –
Cc1c(-c2ccc(-c3ccccc3F)cc2)nc2ccc(F)cc2c1C(=O)O [Pattern B, brequinar sodium salt] | Pattern C after 4 days at ambient | – | – | –
Cc1c(-c2ccc(-c3ccccc3F)cc2)nc2ccc(F)cc2c1C(=O)O [Pattern I, brequinar sodium salt] | 2 days | – | unstable | –
Cc1c(-c2ccc(-c3ccccc3F)cc2)nc2ccc(F)cc2c1C(=O)O [Pattern C, 6-Flouro-2-(2′-fluoro-1,1′-biphenyl-4-yl)-3-methyl-4-quinolinecarboxylic acid sodium salt] | – | – | – | Stability of the polymorphic form (in words) (listed as polymorphic form C): stable
Cc1c(-c2ccc(-c3ccccc3F)cc2)nc2ccc(F)cc2c1C(=O)O [Pattern E, brequinar sodium salt] | – | Pattern C after 1 week (closed cap weeks | – | –
Cc1c(-c2ccc(-c3ccccc3F)cc2)nc2ccc(F)cc2c1C(=O)O [Pattern F, brequinar sodium salt] | – | Pattern C after 1 week (closed cap weeks | – | –
